Our source for the GI50 and TGI values is PubChem BioAssay (NCI).

What all share (assay): NCI-60 cell line screen, 48 h
Experiment [1] relates to HCT-15 colon.
For experiment [2], the system named is HCC-2998 colon.
In experiment [3] the test system is SF-268 CNS.
Experiment [4] has as its system OVCAR-4 ovarian.
Experiment [5] deals with NCI-H226 lung.
For experiment [6], the system named is CCRF-CEM leukemia.
Experiment [7] has as its system RPMI-8226 leukemia.
The test system of experiment [8] is SR leukemia.
The subject of experiment [9] is CAKI-1 renal.
Experiment [10] has as its system SK-MEL-28 melanoma.

Molecules are shown by their SMILES. Values joined by “and” are separate entries in the source; they are usually repeats but may differ in a detail not shown here. Equal entries are not always repeated.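 Cells were grown in 96-well plates and exposed to each compound for 48 hours at five concentrations; endpoints were interpolated linearly between bracketing concentrations, or set to the highest concentration if not reached. At the GI50, growth is halved. TGI: concentration producing complete growth inhibition.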

As to `C=C1CCC2C3(C)COC(c4c(OC)cccc4OC)OC3CCC2(C)C1C/C=C1/C(=O)OCC1O` (stereo not given), the GI50 in [1] was 2.28 µM; in experiment [2] it was 4.18 µM; in [3], 3.7 µM; in experiment [4], 2.42 µM; in experiment [5], 2.42 µM; in experiment [6], 1.86 µM. Besides, the GI50 in experiment [7] is 2.01 µM; in experiment [8], 1.62 µM; in experiment [9] it was 1.57 µM; in experiment [10], 1.93 µM. Also, the TGI in [1] was determined as 7.87 µM; in experiment [2], 11.2 µM; in experiment [3], 12.4 µM; in experiment [4] it was 6.73 µM; in experiment [5] it was 5.81 µM; in experiment [6] it was 5.75 µM. The TGI in experiment [7] worked out at 5.67 µM; in [8] it was 4.99 µM; in [9], 3.48 µM; in experiment [10], 4.05 µM.
In the case of `Nc1nc2c(nnn2C2OC(CO)C(O)C2O)c(=O)[nH]1` (stereo not given), the GI50 in experiment [1] is 0.714 µM; in experiment [2] it was 0.854 µM; in [3] it was 3.15 µM; in [4], 1.59 µM; in experiment [5], 6.31 µM; in experiment [6], 0.676 µM. The GI50 in experiment [7] is 2.76 µM; in experiment [8], 1.16 µM; in experiment [9], 0.567 µM; in [10], 16.9 µM. The TGI in experiment [1] was above 100 µM; in experiment [2], above 27.3 µM; in [3] it was above 100 µM; in experiment [4] it was above 100 µM; in [5], above 100 µM; in experiment [6], above 100 µM. Further, the TGI in [7], in [8], in experiment [9] and in [10] was above 100 µM in each case.
For `CSCC[C@H](NC(=O)[C@H](CC(C)C)NC(=O)[C@@H](Cc1ccccc1)NC(=O)CNC(=O)[C@@H](NC(=O)[C@H](C)NC(=O)[C@H](Cc1c[nH]c2ccccc12)NC(=O)[C@H](CCC(N)=O)NC(=O)[C@H](N)CC(N)=O)C(C)C)C(N)=O`, the TGI in experiment [1], in experiment [2], in [3], in experiment [4], in [5] and in experiment [6] was above 12.5 µM each time. The TGI in [7] is above 12.5 µM; in experiment [8], 10.7 µM; in experiment [9], above 12.5 µM; in experiment [10], above 12.5 µM.
On to `O=c1c2cccc(F)c2sc2c(N3CCNCC3)nc3ccccc3c12`, for which the GI50 in experiment [1] is 1.29 µM; in [2], 1.48 µM; in experiment [3], 1.55 µM; in experiment [4], 1.64 µM; in experiment [5], 1.65 µM; in experiment [6] it was 1.33 µM. In addition, the GI50 in experiment [7] was 1.69 µM; in experiment [8], 1.08 µM; in experiment [9], 1.35 µM; in experiment [10], 1.88 µM. Further, the TGI came to 2.71 µM in experiment [1]; 3.13 µM in experiment [2]; 3.26 µM in experiment [3]; 3.08 µM in experiment [4]; 3.4 µM in experiment [5]; 3.18 µM in experiment [6]. Also, the TGI in [7] came out at 3.73 µM; in experiment [8], 3.35 µM; in [9], 2.73 µM; in [10], 3.35 µM.
For the compound `COC(C(=O)C(O)C(C)O)C1Cc2cc3cc(OC4CC(OC5CC(O)C(O)C(C)O5)C(O)C(C)O4)c(C)c(O)c3c(O)c2C(=O)C1OC1CC(OC2CC(O)C(OC3CC(C)(O)C(O)C(C)O3)C(C)O2)C(O)C(C)O1` (stereo not given), the GI50 in [1] is 0.244 µg/mL and 0.00299 µg/mL; in experiment [2], 0.0117 µg/mL and 0.000297 µg/mL; in experiment [3], 0.0167 µg/mL and 0.00113 µg/mL; in [4], 0.0242 µg/mL and 0.00192 µg/mL; in experiment [5], 0.0112 µg/mL and 0.000196 µg/mL; in experiment [6], 0.0112 µg/mL and 0.000853 µg/mL. The GI50 was 0.0112 µg/mL and 0.00164 µg/mL in experiment [7]; 0.0112 µg/mL and 1.91 µg/mL in experiment [8]; 0.0112 µg/mL and 0.000362 µg/mL in [9]; 0.0112 µg/mL and 0.000611 µg/mL in [10]. The TGI in experiment [1] was 2.65 µg/mL and 1.5 µg/mL; in experiment [4], 0.269 µg/mL and 0.143 µg/mL; in [7] it was 0.507 µg/mL and 0.191 µg/mL; in [8], 112 µg/mL and > 150 µg/mL; in experiment [9] it was 0.0484 µg/mL and 0.0414 µg/mL.
As to `O=C1C(=O)c2ccccc2C(O)=C1CCCc1ccc(C2CCCC2)cc1`, the GI50 was 4.25 µM in [1]; 2.99 µM in experiment [2]; 5.1 µM in experiment [3]; 5.92 µM in experiment [4]; 3.77 µM in experiment [5]; 4.62 µM in experiment [6]. The GI50 in experiment [7] was 2.66 µM; in experiment [8], 3.39 µM; in [9] it was 3.15 µM; in [10], 7.69 µM. Also, the TGI is 16.9 µM in experiment [1]; 8.34 µM in experiment [2]; 51.5 µM in experiment [3]; 39.7 µM in [4]; 20.5 µM in [5]; 30.3 µM in [6]. The TGI in [7] was found to be 6.94 µM; in [8], 12.9 µM; in [9], 11.8 µM; in experiment [10], 40.1 µM.
`N#Cc1ccsc1NC(=O)COC(=O)c1cccc(S(=O)(=O)N2CCc3ccccc32)c1`: the GI50 was 3.25 µM in [1]; 39.2 µM in experiment [2]; 13.4 µM in experiment [3]; 64.7 µM in experiment [4]; above 100 µM in [5]; 14.5 µM in experiment [6]. Besides, the GI50 was 17.4 µM in experiment [7], 22.9 µM in [8], 42.4 µM in [9] and 22.4 µM in experiment [10]. The TGI in [1], in experiment [2], in experiment [3], in [4], in experiment [5] and in [6] was above 100 µM in each case. For the same compound, the TGI in [7], in [8], in experiment [9] and in experiment [10] was above 100 µM in each case.
Regarding `C/C=C(/CCC1NCCC2c3ccccc3NC12)[Si](C)(C)C` (stereo not given), the TGI in experiment [1] stood at 24.9 µM; in experiment [2], 3.61 µM; in [3], 23.5 µM; in [4], 20.9 µM; in experiment [5] it was 27.1 µM; in [6], 57 µM. The TGI in experiment [7] stood at 13.7 µM; in experiment [8], 12.5 µM; in experiment [9], 22.8 µM; in experiment [10] it was 16.9 µM.
